This note sets out measurements from patent US11008317B2, “Triazolopyridine inhibitors of myeloperoxidase and/or EPX” (priority 2016, dated 2021).

Usually IC50 stands for the concentration needed to halve the response being measured.

Test [1] has as its target T1, myeloperoxidase (Homo sapiens, UniProt P05164).
T1 sequence (P05164 49-745): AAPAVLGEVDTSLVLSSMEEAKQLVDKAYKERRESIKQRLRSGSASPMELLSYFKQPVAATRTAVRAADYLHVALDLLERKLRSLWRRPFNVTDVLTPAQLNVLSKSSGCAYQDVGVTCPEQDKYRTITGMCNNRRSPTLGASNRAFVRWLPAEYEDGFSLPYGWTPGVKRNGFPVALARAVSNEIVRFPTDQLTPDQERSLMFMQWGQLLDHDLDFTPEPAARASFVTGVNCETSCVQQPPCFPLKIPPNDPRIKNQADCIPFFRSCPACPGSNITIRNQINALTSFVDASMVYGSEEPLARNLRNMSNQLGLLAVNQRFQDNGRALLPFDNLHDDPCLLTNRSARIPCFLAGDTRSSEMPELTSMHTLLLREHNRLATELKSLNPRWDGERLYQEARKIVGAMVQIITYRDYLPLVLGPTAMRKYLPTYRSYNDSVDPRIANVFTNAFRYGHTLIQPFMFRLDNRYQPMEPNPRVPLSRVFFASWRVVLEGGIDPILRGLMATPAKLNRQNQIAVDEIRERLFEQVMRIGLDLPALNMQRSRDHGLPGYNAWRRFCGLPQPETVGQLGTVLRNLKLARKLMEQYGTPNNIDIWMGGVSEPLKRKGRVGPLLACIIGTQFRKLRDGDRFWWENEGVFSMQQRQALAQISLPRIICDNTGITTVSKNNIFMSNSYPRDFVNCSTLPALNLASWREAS
Nature of the test: MPO Peroxidation Assay (Amplex Red Assay). It counts as biochemical. As to conditions: potency range class, read-out: Amplex Red Assay IC50 value.

The target of test [2] is T1, myeloperoxidase. Nature of the test: MPO Chlorination Assay (APF Assay). Type of test: biochemical. As to conditions: potency range class, read-out: APF Assay IC50 value.

For `Nc1cc(C(CCN[C@H]2CC[C@H](c3ccccc3)CC2)c2ccccc2F)c2nn[nH]c2n1` (stereo partly drawn) [Example 157, 7-[1-(2-fluorophenyl)-3-{[(trans)-4-phenylcyclohexyl]amino}propyl]-3H-[1,2,3]triazolo [4,5-b]pyridin-5-amine], the IC50 at myeloperoxidase [1] lay within 101 to 999 nM; at myeloperoxidase [2] it was 1 to 100 nM.
`COc1cccc(C(CCN[C@H]2CC[C@H](c3ccccc3)CC2)c2cc(N)nc3[nH]nnc23)c1` (stereo partly drawn) [Example 158, 7-[1-(3-methoxyphenyl)-3-{[(trans)-4-phenylcyclohexyl]amino}propyl]-3H-[1,2,3]triazolo [4,5-b]pyridin-5-amine]: the IC50 on myeloperoxidase [1] lay in the range of 101 to 999 nM; at myeloperoxidase [2], 1 to 100 nM.
With `N#Cc1ccc(C(CCN[C@H]2CC[C@H](c3ccccc3)CC2)c2cc(N)nc3[nH]nnc23)cc1` (stereo partly drawn) [Example 159, 4-(1-{5-amino-3H-[1,2,3]triazolo [4,5-b]pyridin-7-yl}-3-{[(trans)-4-phenylcyclohexyl]amino}propyl) benzonitrile], the half-inhibitory concentration (IC50) at myeloperoxidase [1] was 101 to 999 nM; at myeloperoxidase [2], 1000 to 10000 nM.
`NCc1ccc(C(CCN[C@H]2CC[C@H](c3ccccc3)CC2)c2cc(N)nc3[nH]nnc23)cc1` (stereo partly drawn) [Example 160, 7-{1-[4-(aminomethyl)phenyl]-3-{[(trans)-4-phenylcyclohexyl]amino}propyl}-3H-[1,2,3]triazolo[4,5-b]pyridin-5-amine]: the IC50 lay in the range of 101 to 999 nM on myeloperoxidase [1] and 1000 to 10000 nM on myeloperoxidase [2].
In the same order, the values of `N#Cc1ccccc1C(CCN[C@H]1CC[C@H](c2ccccc2)CC1)c1cc(N)nc2[nH]nnc12` (stereo partly drawn) [Example 161, 2-(1-{5-amino-3H-[1,2,3]triazolo [4,5-b]pyridin-7-yl}-3-{[(trans)-4-phenylcyclohexyl]amino}propyl) benzonitrile] are 1000 to 10000 nM and 101 to 999 nM.
In the same order, the values of `Nc1cc(C(CCN[C@H]2CC[C@H](c3ccccc3)CC2)c2cccc(Cl)c2)c2nn[nH]c2n1` (stereo partly drawn) [Example 162, 7-[1-(3-chlorophenyl)-3-{[(trans)-4-phenylcyclohexyl]amino}propyl]-3H-[1,2,3]triazolo [4,5-b]pyridin-5-amine] are 101 to 999 nM and 1 to 100 nM.
In the same order, the values of `Nc1cc(C(CCN[C@H]2CC[C@H](c3ccccc3)CC2)c2cccc(CO)c2)c2nn[nH]c2n1` (stereo partly drawn) [Example 164, [3-(1-{5-amino-3H-[1,2,3]triazolo [4,5-b]pyridin-7-yl}-3-{[(trans)-4-phenylcyclohexyl]amino}propyl)phenyl]methanol] are 1000 to 10000 nM and 1 to 100 nM.
Consider `Nc1cc(C(CCN[C@H]2CC[C@H](c3ccccc3)CC2)c2cccc(S(N)(=O)=O)c2)c2nn[nH]c2n1` (stereo partly drawn) [Example 165, 3-(1-{5-amino-3H-[1,2,3]triazolo [4,5-b]pyridin-7-yl}-3-{[(trans)-4-phenylcyclohexyl]amino}propyl) benzene-1-sulfonamide], for which the IC50 at myeloperoxidase [1] and on myeloperoxidase [2] was 101 to 999 nM each time.
Turning to `Nc1cc(C(CCN[C@H]2CC[C@H](c3ccccc3)CC2)c2cccc(OC(F)F)c2)c2nn[nH]c2n1` (stereo partly drawn) [Example 166, 7-{1-[3-(difluoromethoxy)phenyl]-3-{[(trans)-4-phenylcyclohexyl]amino}propyl}-3H-[1,2,3]triazolo[4,5-b]pyridin-5-amine], the figures for the IC50 on myeloperoxidase [1] and on myeloperoxidase [2] were 101 to 999 nM and 1 to 100 nM, respectively.
Consider `Cc1ccc(F)c(C(CCN[C@H]2CC[C@H](c3ccccc3)CC2)c2cc(N)nc3[nH]nnc23)c1` (stereo partly drawn) [Example 168, 7-[1-(2-fluoro-5-methylphenyl)-3-{[(trans)-4-phenylcyclohexyl]amino}propyl]-3H-[1,2,3]triazolo [4,5-b]pyridin-5-amine], for which the IC50 fell in the range of 1000 to 10000 nM on myeloperoxidase [1] and 1 to 100 nM on myeloperoxidase [2].
`N#Cc1cccc(C(CCNC23CCC(c4ccccc4)(CC2)CC3)c2cc(N)nc3[nH]nnc23)c1` (centres unmarked) [Example 171, 7-(1-(3-cyanophenyl)-3-((4-phenylbicyclo[2.2.2]octan-1-yl)amino)propyl)-3H-[1,2,3]triazolo[4,5-b]pyridin-5-amine]: the IC50 on myeloperoxidase [1] and on myeloperoxidase [2] was 1 to 100 nM throughout.
Consider `NCc1cccc(C(CCNC23CCC(c4ccccc4)(CC2)CC3)c2cc(N)nc3[nH]nnc23)c1` (centres unmarked) [Example 172, 7-(1-(3-(aminomethyl)phenyl)-3-((4-phenylbicyclo[2.2.2]octan-1-yl)amino)propyl)-3H-[1,2,3]triazolo[4,5-b]pyridin-5-amine], for which the IC50 is 101 to 999 nM on myeloperoxidase [1] and 1 to 100 nM on myeloperoxidase [2].
For `COc1ccc(CNCCC(c2ccccc2)c2cc(N)nc3[nH]nnc23)cc1` (centres unmarked) [Example 175, 7-(3-{[(4-methoxyphenyl)methyl]amino}-1-phenylpropyl)-3H-[1,2,3]triazolo [4,5-b]pyridin-5-amine], the IC50 at myeloperoxidase [1] and at myeloperoxidase [2] was 101 to 999 nM each time.
With `Nc1cc(C(CCNCC2CC2c2ccc(F)cc2)c2ccccc2)c2nn[nH]c2n1` (centres unmarked) [Example 176, 7-[3-({[2-(4-fluorophenyl)cyclopropyl]methyl}amino)-1-phenylpropyl]-3H-[1,2,3]triazolo[4,5-b]pyridin-5-amine], the concentration for half-maximal inhibition (IC50) is 101 to 999 nM at myeloperoxidase [1] and 1 to 100 nM on myeloperoxidase [2].
`N#CC1(c2ccccc2)CCC(NCCC(c2ccccc2)c2cc(N)nc3[nH]nnc23)CC1` (centres unmarked) [Example 177, 4-((3-(5-amino-3H-[1,2,3]triazolo[4,5-b]pyridin-7-yl)-3-phenylpropyl)amino)-1-phenylcyclohexane-1-carbonitrile]: the IC50 at myeloperoxidase [1] was 101 to 999 nM; at myeloperoxidase [2], 1 to 100 nM.
Taken in the same sequence, the figures for `Nc1cc(C(CCN[C@@H]2CC[C@@H](c3ccccc3)C[C@@H]2CO)c2ccccc2)c2nn[nH]c2n1` (stereo partly drawn) [Example 180, [(1S,2R,5R)-2-[(3-{5-amino-3H-[1,2,3]triazolo[4,5-b]pyridin-7-yl}-3-phenylpropyl)amino]-5-phenylcyclohexyl] methanol] were 101 to 999 nM and 1 to 100 nM.
Turning to `Nc1cc([C@H](CCNC23CCC(c4ccccc4)(CC2)C(=O)C3)c2ccccc2)c2nn[nH]c2n1` [Example 182, 4-{[(3R)-3-{5-amino-3H-[1,2,3]triazolo [4,5-b]pyridin-7-yl}-3-phenylpropyl]amino}-1-phenylbicyclo [2.2.2]octan-2-one], the IC50 fell in the range of 101 to 999 nM at myeloperoxidase [1] and 1 to 100 nM at myeloperoxidase [2].
Take `Nc1cc([C@H](CCNC2CC[C@H](c3ccccc3)[C@@H](O)C2)c2ccccc2)c2nn[nH]c2n1` (stereo partly drawn) [Example 183, (1S,2R)-5-{[(3R)-3-{5-amino-3H-[1,2,3]triazolo [4,5-b]pyridin-7-yl}-3-phenylpropyl]amino}-2-phenylcyclohexan-1-ol]: the 50% inhibitory concentration (IC50) lay in the range of 1000 to 10000 nM on myeloperoxidase [1] and 1 to 100 nM on myeloperoxidase [2].
As for `Nc1cc([C@H](CCNC2CC[C@H](c3ccccc3)[C@@H](O)C2)c2ccccc2)c2nn[nH]c2n1` (stereo partly drawn) [Example 184, (1S,2R)-5-{[(3R)-3-{5-amino-3H-[1,2,3]triazolo[4,5-b]pyridin-7-yl}-3-phenylpropyl]amino}-2-phenylcyclohexan-1-ol], the figures for the IC50 on myeloperoxidase [1] and at myeloperoxidase [2] were 101 to 999 nM and 1 to 100 nM, respectively.
With `Nc1cc([C@H](CCN2CCC(O)(Cc3ccccc3)CC2)c2ccccc2)c2nn[nH]c2n1` [Example 185, 1-[(3R)-3-{5-amino-3H-[1,2,3]triazolo [4,5-b]pyridin-7-yl}-3-phenylpropyl]-4-benzylpiperidin-4-ol], the concentration for half-maximal inhibition (IC50) was 1000 to 10000 nM at myeloperoxidase [1] and 1 to 100 nM at myeloperoxidase [2].
With `Nc1cc(C(CCN2CCC(c3ccccc3)CC2)c2ccccc2)c2nn[nH]c2n1` (centres unmarked) [Example 186, 7-[1-phenyl-3-(4-phenylpiperidin-1-yl)propyl]-3H-[1,2,3] triazolo[4,5-b] pyridin-5-amine], the figures for the IC50 at myeloperoxidase [1] and at myeloperoxidase [2] were 1000 to 10000 nM and 101 to 999 nM, respectively.
For the compound `Nc1cc(C(CCN2CCC(Cc3ccccc3)CC2)c2ccccc2)c2nn[nH]c2n1` (centres unmarked) [Example 187, 7-[3-(4-benzylpiperidin-1-yl)-1-phenylpropyl]-3H-[1,2,3]triazolo [4,5-b]pyridin-5-amine], the IC50 on myeloperoxidase [1] was 1000 to 10000 nM; on myeloperoxidase [2] it was 1 to 100 nM.
With `Nc1cc(C(CCNC2CCc3ccccc3C2)c2ccccc2)c2nn[nH]c2n1` (centres unmarked) [Example 188, 7-{1-phenyl-3-[(1,2,3,4-tetrahydronaphthalen-2-yl)amino]propyl}-3H-[1,2,3]triazolo [4,5-b]pyridin-5-amine], the IC50 is 101 to 999 nM on myeloperoxidase [1] and 1 to 100 nM on myeloperoxidase [2].
`NC(=O)CN(CC[C@H](c1ccccc1)c1cc(N)nc2[nH]nnc12)C12CCC(c3ccccc3)(CC1)CC2` [Example 190, (R)-2-((3-(5-amino-3H-[1,2,3]triazolo[4,5-b]pyridin-7-yl)-3-phenylpropyl)(4-phenylbicyclo[2.2.2]octan-1-yl)amino)acetamide]: the figures for the 50% inhibitory concentration (IC50) at myeloperoxidase [1] and on myeloperoxidase [2] were 101 to 999 nM and 1 to 100 nM, respectively.
In the case of `CNC(=O)CN(CC[C@H](c1ccccc1)c1cc(N)nc2[nH]nnc12)C12CCC(c3ccccc3)(CC1)CC2` [Example 191, 2-{[(3R)-3-{5-amino-3H-[1,2,3]triazolo [4,5-b]pyridin-7-yl}-3-phenylpropyl]({4-phenylbicyclo[2.2.2]octan-1-yl})amino}-N-methylacetamide], the figures for the IC50 on myeloperoxidase [1] and on myeloperoxidase [2] were 101 to 999 nM and 1 to 100 nM, respectively.
